System: Myzus persicae
Assay: Myzus persicae spray test (Chinese cabbage leaf discs)
Format: in vivo
Conditions: foliar, 144 h, Aufwandmenge 500g/ha, after 6 days, read-out: Wirkung
From the text: Zur Herstellung einer zweckmäßigen Wirkstoffzubereitung löst man 1 Gewichtsteil Wirkstoff mit den angegebenen Gewichtsteilen Lösungsmittel und füllt mit Wasser, welches eine Emulgatorkonzentration von 1000 ppm enthält, bis zum Erreichen der gewünschten Konzentration auf. Zur Herstellung weiterer Testkonzentrationen wird mit emulgatorhaltigem Wasser verdünnt.
Chinakohlblattscheiben (Brassica pekinensis), die von allen Stadien der Grünen Pfirsichblattlaus (Myzus persicae) befallen sind, werden mit einer Wirkstoffzubereitung der gewünschten Konzentration gespritzt.
Nach 6 Tagen wird die Wirkung in % bestimmt. Dabei bedeutet 100 %, dass alle Blattläuse abgetötet wurden; 0 % bedeutet, dass keine Blattläuse abgetötet wurden.

Question: How did the mortality at 500 g/ha turn out when `O=C(Nc1cc(-c2ccc(OC(F)(F)F)cc2)cc(NC(=O)C2(c3ccccc3)CC2)n1)C1CC1` [I-008] was run?
Answer: 90%

Reference: EP3284739A1, “SUBSTITUTED (HET) ARYL COMPOUNDS AS PESTICIDES” (Bayer CropScience Aktiengesellschaft, priority 2017, dated 2018)
